Results published in publication PMC5787466, “Accelerated bottom-up drug design platform enables the discovery of novel stearoyl-CoA desaturase 1 inhibitors for cancer therapy” (Oncotarget, 2017).

Experiments:
[1] = test system: 468 known kinases; experiment: Kinome scan (binding)
Source text: Induction of the unfolded protein response (UPR) is a known biological response to SCD1 inhibition in tumor cells. […] The addition of exogenous OA was sufficient to reverse the activation of ATF6 (Figure 4b). Moreover, exogenous OA inhibited SSI-(1-4) mediated upregulation of the UPR markers BiP (heat shock 70 kDa protein) and CHOP (damage inducible transcript 3) protein levels in both A498 and ACHN cells (Figure 4c). Collectively these findings confirm that SSI-(1-4) reliably recapitulates the biological responses observed in tumor cells treated with known SCD1 inhibitors. […] Thus, SSI-4 is not predicted to have any major off-target effects through kinase inhibition (Supplementary Figures 7 and 8). […]
of PLS factors. T-value filter (t-value < 2.0) was used to eliminate independent variables overly sensitive to incremental changes from the training set. For structural components, both atom-based and pharmacophore features based were examined.
The regression with m PLS factors, fitted to activities is given as: […]
i =1 , where m = number of PLS factors, b is regression coefficient, vector y represents activity values in the training set. […]
A final Z-filtering mechanism was applied to reduce the dataset to a few select compounds for synthesis and experimental screening by using combined normalized scoring. The final Z-score for each compound was determined as: […]

[2] = Seven-day oral toxicology study (body weight, serum chemistry); type: in vivo, Sprague Dawley rats
Method: . […] Chronic treatment at the highest dose in tumor-bearing animals appeared to be well tolerated, with ‹10% reduction in body mass even at the highest dose of 600mg/kg after 4.5 weeks of daily treatment (Supplementary Figure S9d).
Figure 7 SSI-4 has a favorable toxicity profile (a-b) Weight changes in male or female Sprague Dawley rats treated daily with indicated doses of SSI-4 for seven days (n=3 per group). (c-d) Serum profile of indicated enzymes measured on day 8 in male or female Sprague Dawley rats treated daily with indicated doses of SSI-4 for seven days (n=3 per group). (BUN= blood urea nitrogen; AST= aspartate aminotransferase; ALT= alanine aminotransferase; ALK/Phos= alkaline phosphatase).
Sprague dawley rats (6-8 weeks old M/F) were orally gavaged with SS1-4 at the indicated dose daily, for a duration of seven days. For each dose levels 3 male and 3 females were placed on study. Rats were clinically observed and weighed daily. On day 8 rats were euthanatized and blood was collected by cardiac puncture. Blood chemistry was measured by STAT Veterinary laboratory (San Diego CA).

[3] = Tolerability of chronic treatment in tumor-bearing animals; type: in vivo, athymic nude mice
Method: Chronic treatment at the highest dose in tumor-bearing animals appeared to be well tolerated, with ‹10% reduction in body mass even at the highest dose of 600mg/kg after 4.5 weeks of daily treatment (Supplementary Figure S9d).
A498 cells were injected subcutaneously in the flank of athymic nude mice at 1x10^6/mouse. Once tumor burden reached >50mm^3, SSI-4 treatment was administered at 60, 180, or 600 mg/kg in custom AIN76 animal chow (Research Diets, Inc.), given continuously for 4.5 weeks. Tumor burden was measured using calipers. For the lung tumor study, 2 million ACHN- pSIN Luc Ub Emerald GFP cells were injected intravenously in 50µL of PBS in athymic nude mice. 54 days after implantation, animals began SSI-4 treatment (180 mg/kg, chow, continuous) for 28 days. Once therapy was completed, lung tissue was harvested and analyzed for tumor burden via ex vivo bioluminescent imaging, and hematoxylin and eosin (H&E) staining of formalin-fixed, paraffin-embedded lung tissue. 20× images were obtained using Scanscope XT and Imagescope software.
Supplementary Figure 9: Patient survival correlated with SCD1 gene expression. […] (d) Change in body weight (BW) corrected for individual total weight, recorded during in vivo dose-response to SSI-4 in A498 xenograft model (Figure 3g). […]

[4] = test system: ACHN ccRCC pulmonary metastasis; experiment: ACHN pulmonary metastasis model; type: in vivo, athymic nude mice; details: 180 mg/kg in chow, 28 days
Method: SCD1 expression correlates with poor cancer patient outcomes as evidenced by decreased survival in multiple cancers including gastric, lung, ovarian and renal cell carcinoma (Figure 5a-5b, Supplementary Figure 9a-9b). […] Our findings in thyroid carcinoma similarly present discordancy between tumor response to SCD1 inhibitors and SCD1 expression. SSI-4 was tested in vivo for anti-tumorigenic activity.
Figure 5 SSI-4 attenuates tumor progression Kaplan Meier survival analysis of indicated subtypes of (a) gastric and (b) lung cancer patients sorted into high versus low SCD1 mRNA expression, for multiple disease subtypes. Patient risk assessment at indicated mean follow-up is shown. […] (h) Tumor burden of ACHN pulmonary metastasis in response to SSI-4 treatment (180mg/kg) measured by ex vivo bioluminescent flux, given in photons/second (n=5 per group). ([…]) Tumor burden of ACHN pulmonary metastasis as determined by H&E staining of lungs from (h).
ACHN cells were infected with pSIN Luc Ub Emerald GFP lentivirus construct, a kind gift from Dr. Yasuhiro Ikeda (Mayo Clinic). […] Lesion width was calculated as the mean of all nodules measured (7-12 per mouse), identified by H&E staining.
A498 cells were injected subcutaneously in the flank of athymic nude mice at 1x10^6/mouse. […] Tumor burden was measured using calipers. […]

CNC(=O)c1ccnc(NC(=O)N2CCC(Oc3ccccc3Cl)CC2)c1 [SSI-4]
number of 403 non-mutant kinases bound ([1]; 10 nM): none | number of 403 non-mutant kinases bound ([1]; 100 nM, the kinase bound is CDKL2): 1 | liver enzymes ([2]; all doses tested, males and females, day 8): No abnormalities | changes in body weight ([2]; females, all doses tested, daily oral for one week): no significant changes | changes in body weight ([2]; males, daily oral dose of 300mg/kg for one week): < 10% | primary adverse events ([3]; reversible upon discontinuation of therapy): Ocular changes including bilateral squinting | reduction in body mass ([3]; tumor-bearing animals, 600mg/kg, 4.5 weeks of daily treatment): < 10% | pulmonary metastasis formation of ACHN ccRCC [4]: reduced
